Measurements taken from patent US11566007B2, “Ras inhibitors” (Revolution Medicines, Inc., priority 2019, dated 2023).
Where two headings read alike, the source gives them in different places.

Assays:
NRAS Q61R = NRAS Q61R (Homo sapiens (Human), UniProt P01111+P62937, Q61R); assay: Ras-Raf (BRAF RBD) disruption / FRET / MOA assay, NRAS Q61R; type: biochemical; conditions: NRAS Q61R; Ras-Raf disruption/FRET/MOA assay; read-out: IC50* NRAS Q61R FRET data
Protocol: (§1) The purpose of this biochemical assay is to measure the ability of test compounds to facilitate ternary complex formation between a nucleotide-loaded Ras isoform and cyclophilin A; the resulting ternary complex disrupts binding to a BRAF^RBD construct, inhibiting Ras signaling through a RAF effector.
(§2) […]. Compound is present in plate wells as a 10-point 3-fold dilution series starting at a final concentration of 30 μM. After incubation at 25° C. for 3 hours, a mixture of Anti-His Eu-W1024 and anti-GST allophycocyanin is then added to assay sample wells at final concentrations of 10 nM and 50 nM, respectively, and the reaction incubated for an additional 1.5 hours. […] Compounds that facilitate disruption of a Ras:RAF complex are identified as those eliciting a decrease in the TR-FRET ratio relative to DMSO control wells.
(§3) Note—The following protocol describes a procedure for monitoring disruption of K-Ras G12C (GMP-PNP) binding to BRAF^RBD by a compound of the invention. This protocol may also be executed substituting other Ras proteins or nucleotides.
(§4) The purpose of this biochemical assay was to measure the ability of test compounds to facilitate ternary complex formation between a nucleotide-loaded K-Ras isoform and Cyclophilin A; the resulting ternary complex disrupts binding to a BRAF^RBD construct, inhibiting K-Ras signaling through a RAF effector. Data is reported as IC50 values.
as §2, with “Compound was” for “Compound is”, “allophycocyanin was” for “allophycocyanin is”, “a K-Ras:RAF” for “a Ras:RAF”, “complex were” for “complex are”

KRAS Q61H = KRAS Q61H (Homo sapiens (Human), UniProt P01116+P62937, Q61H); assay: Ras-Raf (BRAF RBD) disruption / FRET / MOA assay, KRAS Q61H; type: biochemical; conditions: Ras-Raf disruption/FRET/MOA assay; class symbols; read-out: KRAS Q61H FRET data IC50
Sequence of KRAS Q61H (P01116-2 other isoform, or with tags, fused parts or gaps Q61H): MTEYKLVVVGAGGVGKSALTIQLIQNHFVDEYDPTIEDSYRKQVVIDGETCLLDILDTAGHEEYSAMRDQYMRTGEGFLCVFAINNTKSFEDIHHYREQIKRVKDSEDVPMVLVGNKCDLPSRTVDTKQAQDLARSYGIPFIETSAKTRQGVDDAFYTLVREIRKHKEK
Sequence of KRAS Q61H (P62937 whole entry): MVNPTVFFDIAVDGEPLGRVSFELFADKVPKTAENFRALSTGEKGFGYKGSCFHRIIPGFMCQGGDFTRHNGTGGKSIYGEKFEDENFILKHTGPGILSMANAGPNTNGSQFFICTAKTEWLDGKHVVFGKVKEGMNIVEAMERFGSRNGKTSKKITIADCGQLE
Protocol: as §1, §2, §3, §4
as §2, with “Compound was” for “Compound is”, “allophycocyanin was” for “allophycocyanin is”, “a K-Ras:RAF” for “a Ras:RAF”, “complex were” for “complex are”

K-Ras G13C = K-Ras G13C (Homo sapiens (Human), UniProt P01116+P62937, G13C); assay: Ras-Raf (BRAF RBD) disruption / FRET / MOA assay, KRAS G13C; type: biochemical; conditions: KRAS G13C; Ras-Raf disruption/FRET/MOA assay; read-out: IC50* KRAS G13C FRET data
Sequence of K-Ras G13C (P01116-2 other isoform, or with tags, fused parts or gaps G13C): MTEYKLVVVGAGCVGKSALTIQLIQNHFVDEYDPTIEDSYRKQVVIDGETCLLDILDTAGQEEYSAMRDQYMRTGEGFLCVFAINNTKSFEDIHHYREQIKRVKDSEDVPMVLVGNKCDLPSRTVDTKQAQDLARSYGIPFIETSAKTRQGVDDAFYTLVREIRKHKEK
Sequence of K-Ras G13C (P62937 whole entry): as the sequence (P62937 whole entry) above
Outline: (§5)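 Ternary complex formation (Ras–compound–cyclophilin A) displacing BRAF RBD, monitored by TR-FRET. Three hours at 25° C with compound (top 30 μM final), then 1.5 h with the labelled antibodies. Lower ratio than DMSO indicates disruption; IC50 reported.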

KRAS G12D = KRAS G12D (Homo sapiens (Human), UniProt P01116+P62937, G12D); assay: Ras-Raf (BRAF RBD) disruption / FRET / MOA assay, KRAS G12D; type: biochemical; conditions: Ras-Raf disruption/FRET/MOA assay; class symbols; read-out: KRAS G12D FRET data IC50
Sequence of KRAS G12D (P01116-2 other isoform, or with tags, fused parts or gaps G12D): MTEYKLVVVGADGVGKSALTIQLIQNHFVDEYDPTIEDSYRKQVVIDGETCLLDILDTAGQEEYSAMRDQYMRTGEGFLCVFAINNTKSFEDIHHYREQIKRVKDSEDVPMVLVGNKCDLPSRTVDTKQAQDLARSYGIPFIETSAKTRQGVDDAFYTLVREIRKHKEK
Sequence of KRAS G12D (P62937 whole entry): as the sequence (P62937 whole entry) above
Outline: as §5

NRAS WT = NRAS WT (Homo sapiens (Human), UniProt P01111+P62937); assay: Ras-Raf (BRAF RBD) disruption / FRET / MOA assay, NRAS WT; type: biochemical; conditions: read-out: IC50* NRAS WT FRET data
Sequence of NRAS WT (P01111 whole entry): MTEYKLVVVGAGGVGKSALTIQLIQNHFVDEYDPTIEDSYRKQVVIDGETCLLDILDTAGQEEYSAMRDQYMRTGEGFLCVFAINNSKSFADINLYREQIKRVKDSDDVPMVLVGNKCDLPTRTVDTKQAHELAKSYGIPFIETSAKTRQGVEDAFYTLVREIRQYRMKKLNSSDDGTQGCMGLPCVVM
Sequence of NRAS WT (P62937 whole entry): as the sequence (P62937 whole entry) above
Protocol: as §1, §2, §3, §4
as §2, with “Compound was” for “Compound is”, “allophycocyanin was” for “allophycocyanin is”, “a K-Ras:RAF” for “a Ras:RAF”, “complex were” for “complex are”

NRAS Q61K = NRAS Q61K (Homo sapiens (Human), UniProt P01111+P62937, Q61K); assay: Ras-Raf (BRAF RBD) disruption / FRET / MOA assay, NRAS Q61K; type: biochemical; conditions: NRAS Q61K; Ras-Raf disruption/FRET/MOA assay; read-out: IC50* NRAS Q61K FRET data
Sequence of NRAS Q61K (P01111 whole entry Q61K): as the sequence (P01111 whole entry) above, with Q61K counted along it
Sequence of NRAS Q61K (P62937 whole entry): as the sequence (P62937 whole entry) above
Protocol: as §1, §2, §3, §4
as §2, with “Compound was” for “Compound is”, “allophycocyanin was” for “allophycocyanin is”, “a K-Ras:RAF” for “a Ras:RAF”, “complex were” for “complex are”

K-Ras G12C = K-Ras G12C (Homo sapiens (Human), UniProt P01116+P62937, G12C); assay: Ras-Raf (BRAF RBD) disruption / FRET / MOA assay, KRAS G12C; type: biochemical; conditions: KRAS G12C; Ras-Raf disruption/FRET/MOA assay; read-out: IC50* KRAS G12C FRET data
Sequence of K-Ras G12C (P01116-2 other isoform, or with tags, fused parts or gaps G12C): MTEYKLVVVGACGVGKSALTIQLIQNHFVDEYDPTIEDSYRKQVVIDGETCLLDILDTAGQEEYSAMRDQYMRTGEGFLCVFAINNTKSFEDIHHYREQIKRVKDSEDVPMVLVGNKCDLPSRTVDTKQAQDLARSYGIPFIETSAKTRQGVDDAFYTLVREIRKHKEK
Sequence of K-Ras G12C (P62937 whole entry): as the sequence (P62937 whole entry) above
Outline: as §5

NRAS G12C = NRAS G12C (Homo sapiens (Human), UniProt P01111+P62937, G12C); assay: Ras-Raf (BRAF RBD) disruption / FRET / MOA assay, NRAS G12C; type: biochemical; conditions: read-out: IC50* NRAS G12C FRET data
Sequence of NRAS G12C (P01111 whole entry G12C): as the sequence (P01111 whole entry) above, with G12C counted along it
Sequence of NRAS G12C (P62937 whole entry): as the sequence (P62937 whole entry) above
Outline: as §5

KRAS G12V = KRAS G12V (Homo sapiens (Human), UniProt P01116+P62937, G12V); assay: Ras-Raf (BRAF RBD) disruption / FRET / MOA assay, KRAS G12V; type: biochemical; conditions: read-out: IC50* KRAS G12V FRET data
Sequence of KRAS G12V (P01116-2 other isoform, or with tags, fused parts or gaps G12V): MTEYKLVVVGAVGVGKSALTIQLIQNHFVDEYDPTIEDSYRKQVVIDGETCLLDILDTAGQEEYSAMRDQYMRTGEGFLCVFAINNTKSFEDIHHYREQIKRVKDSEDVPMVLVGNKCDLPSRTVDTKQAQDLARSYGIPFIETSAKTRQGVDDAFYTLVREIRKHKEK
Sequence of KRAS G12V (P62937 whole entry): as the sequence (P62937 whole entry) above
Outline: as §5

KRAS G13D = KRAS G13D (Homo sapiens (Human), UniProt P01116+P62937, G13D); assay: Ras-Raf (BRAF RBD) disruption / FRET / MOA assay, KRAS G13D; type: biochemical; conditions: read-out: IC50* KRAS G13D FRET data
Sequence of KRAS G13D (P01116-2 other isoform, or with tags, fused parts or gaps G13D): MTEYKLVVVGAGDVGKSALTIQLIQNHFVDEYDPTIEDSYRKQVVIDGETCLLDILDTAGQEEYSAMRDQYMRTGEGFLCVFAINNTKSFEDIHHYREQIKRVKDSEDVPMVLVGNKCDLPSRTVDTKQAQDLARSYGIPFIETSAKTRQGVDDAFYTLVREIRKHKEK
Sequence of KRAS G13D (P62937 whole entry): as the sequence (P62937 whole entry) above
Outline: as §5

KRAS WT = KRAS WT (Homo sapiens (Human), UniProt P01116+P62937); assay: Ras-Raf (BRAF RBD) disruption / FRET / MOA assay, KRAS WT; type: biochemical; conditions: read-out: IC50* KRAS WT FRET data
Sequence of KRAS WT (P01116-2 other isoform, or with tags, fused parts or gaps): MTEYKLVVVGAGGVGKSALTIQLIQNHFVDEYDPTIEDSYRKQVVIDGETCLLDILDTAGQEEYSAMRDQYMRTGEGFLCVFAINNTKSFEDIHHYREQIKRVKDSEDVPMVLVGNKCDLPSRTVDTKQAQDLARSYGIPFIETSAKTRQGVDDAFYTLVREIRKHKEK
Sequence of KRAS WT (P62937 whole entry): as the sequence (P62937 whole entry) above
Outline: as §5

KRAS G12S = KRAS G12S (Homo sapiens (Human), UniProt P01116+P62937, G12S); assay: Ras-Raf (BRAF RBD) disruption / FRET / MOA assay, KRAS G12S; type: biochemical; conditions: Ras-Raf disruption/FRET/MOA assay; class symbols; read-out: KRAS G12S FRET data IC50
Sequence of KRAS G12S (P01116-2 other isoform, or with tags, fused parts or gaps G12S): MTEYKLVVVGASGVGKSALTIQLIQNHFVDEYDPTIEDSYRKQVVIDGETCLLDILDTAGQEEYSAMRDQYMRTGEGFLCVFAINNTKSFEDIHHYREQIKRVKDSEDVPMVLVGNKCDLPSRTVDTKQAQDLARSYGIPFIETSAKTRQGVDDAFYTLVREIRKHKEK
Sequence of KRAS G12S (P62937 whole entry): as the sequence (P62937 whole entry) above
Outline: as §5

NCI-H358 (K-Ras G12C) = assay: CellTiter-Glo cell viability assay, NCI-H358; type: cell-based, human; conditions: NCI-H358, 5-day treatment, class symbols, read-out: Additional H358 Cell Viability assay data (K-Ras G12C, IC50)
Outline: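 Viability of K-Ras mutant lines is measured by ATP luminescence after five days of compound treatment. Percent of DMSO control is calculated and dose-response data are fitted with a four-parameter logistic equation.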

[1] = tested on: NCI-H358 cells (K-Ras G12C); assay: Potency assay: pERK in NCI-H358 cells; type: cell-based, human; conditions: H358 KRAS G12C, read-out: pERK EC50
Outline: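 4 h cpd, 37 °C; 10-pt 3-fold series, 10 mM DMSO top stock, duplicates. Readout pERK: AlphaLISA SureFire Ultra or In-Cell Western (IR-800CW secondary, DRAQ5 DNA stain). IC50, 4-PL fit vs log conc.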

Sequence of NRAS Q61R (P01111 whole entry Q61R, canonical isoform): as the sequence (P01111 whole entry) above, with Q61R counted along it
Sequence of NRAS Q61R (P62937 whole entry, canonical isoform): as the sequence (P62937 whole entry) above

| SMILES | IC50 (NRAS Q61R) | IC50 (KRAS Q61H) | IC50 (K-Ras G13C) | IC50 (KRAS G12D) | IC50 (NRAS WT) | IC50 (NRAS Q61K) | IC50 (K-Ras G12C) | IC50 (NRAS G12C) | IC50 (KRAS G12V) | IC50 (KRAS G13D) | IC50 (KRAS WT) | IC50 (KRAS G12S) | IC50 (NCI-H358 (K-Ras G12C); Homo sapiens, NCI-H358, 120 h) | EC50 ([1]; Homo sapiens, NCI-H358) | IC50 (NCI-H358 (K-Ras G12C)) | EC50 [1] |
| --- | --- | --- | --- | --- | --- | --- | --- | --- | --- | --- | --- | --- | --- | --- | --- | --- |
| C=CC(=O)N1CC[C@H](C(=O)N(C)[C@H](C(=O)N[C@H]2Cc3cc(sn3)-c3ccc4c(c3)c(c(-c3cccnc3[C@H](C)OC)n4CC)CC(C)(C)COC(=O)[C@@H]3CCCN(N3)C2=O)C(C)C)C1 (atropisomer, axis not shown) [Example A340] | 1000 to 10000 nM | 100 to 1000 nM | 100 to 1000 nM | > 10000 nM | 100 to 1000 nM | 100 to 1000 nM | 100 to 1000 nM | 100 to 1000 nM | 1000 to 10000 nM | 1000 to 10000 nM | 1000 to 10000 nM | 1000 to 10000 nM | – | – | – | – |
| C=CC(=O)N(C)[C@H]1CCN(C(=O)N(C)[C@H](C(=O)N[C@H]2Cc3nc(cs3)-c3ccc4c(c3)c(c(-c3cccnc3[C@H](C)OC)n4CC)CC(C)(C)COC(=O)[C@@H]3CCCN(N3)C2=O)C(C)C)C1 (atropisomer, axis not shown) [Example A384] | 100 to 1000 nM | – | 100 to 1000 nM | 100 to 1000 nM | 100 to 1000 nM | 10 to 100 nM | – | 10 to 100 nM | 100 to 1000 nM | – | 100 to 1000 nM | 100 to 1000 nM | < 10 nM | < 5000 nM | – | – |
| C=CC(=O)N1CCN(C(=O)N(C)[C@H](C(=O)N[C@H]2Cc3nc(cs3)-c3ccc4c(c3)c(c(-c3cccnc3[C@H](C)OC)n4CC)CC(C)(C)COC(=O)[C@@H]3CCCN(N3)C2=O)C(C)C)CC1 (atropisomer, axis not shown) [Example A493] | – | 10 to 100 nM | – | 100 to 1000 nM | – | – | – | – | – | – | – | 10 to 100 nM | – | – | < 10 nM | < 5000 nM |
| C=CC(=O)N1CC[C@H](C(=O)N(C)[C@H](C(=O)N[C@H]2Cc3cc(CF)cc(c3)-c3ccc4c(c3)c(c(-c3cccnc3[C@H](C)OC)n4CC)CC(C)(C)COC(=O)[C@@H]3CCCN(N3)C2=O)C(C)C)C1 (atropisomer, axis not shown) [Example A504] | – | 100 to 1000 nM | – | 1000 to 10000 nM | – | – | – | – | – | – | – | 1000 to 10000 nM | – | – | < 10 nM | < 5000 nM |
| C=CC(=O)N1CC[C@H](C(=O)N(C)[C@H](C(=O)N[C@H]2Cc3cc(CF)cc(c3)-c3ccc4c(c3)c(c(-c3cccnc3[C@H](C)OC)n4CC)CC(C)(C)COC(=O)[C@@H]3CCCN(N3)C2=O)C(C)C)C1 (atropisomer, axis not shown) [Example A505] | – | 100 to 1000 nM | – | 1000 to 10000 nM | – | – | – | – | – | – | – | 1000 to 10000 nM | – | – | < 10 nM | < 5000 nM |
| C=CC(=O)N1CC[C@H](C(=O)N(C)[C@H](C(=O)N[C@H]2Cc3cc(O)cc(c3)-c3ccc4c(c3)c(c(-c3cc(CN(C)C)cnc3[C@H](C)OC)n4CC)CC(C)(C)COC(=O)[C@@H]3CCCN(N3)C2=O)C(C)C)C1 (atropisomer, axis not shown) [Example A537] | 100 to 1000 nM | 10 to 100 nM | 10 to 100 nM | 100 to 1000 nM | 10 to 100 nM | 100 to 1000 nM | – | < 10 nM | 10 to 100 nM | 10 to 100 nM | 10 to 100 nM | 10 to 100 nM | – | – | – | < 5000 nM |
